{
  "source": "patent US20040067894A1",
  "about": "“Preparation having antioxidant properties” (Merck Patent GmbH, priority 2002, published 2004)",
  "test": "DPPH assay (free-radical scavenging, antioxidant activity)",
  "type": "biochemical",
  "settings": "for AE (×10^−3): anti-free-radical efficiency, obtained from EC50 and TEC50; for TEC50: reaction time necessary to achieve the EC50 value",
  "description": "2,2-Diphenyl-1-picrylhydrazyl is a free radical which is stable in solution. The unpaired electron results in a strong absorption band at 515 nm, and the solution has a dark violet color. In the presence of a free-radical scavenger, the electron is paired, the absorption disappears, and the decoloration proceeds stoichiometrically taking into account the electrons taken up. The absorbance is measured in a photometer. The anti-free-radical property of the substance to be tested is determined by measuring the concentration at which 50% of the 2,2-diphenyl-1-picrylhydrazyl employed has reacted with the free-radical scavenger. This concentration is expressed as EC50, a value which can be considered to be a property of the substance under the given measurement conditions. The substance investigated is compared with a standard (for example tocopherol). The EC50 value here is a measure of the capacity of the respective compound to scavenge free radicals. The lower the EC50 value, the higher the capacity to scavenge free radicals.\nA further important aspect for the action of the antioxidants is the time in which this EC50 value is reached. This time, measured in minutes, gives the TEC50 value, which allows a conclusion to be drawn on the rate at which these antioxidants scavenge free radicals.\nThe antioxidant activity of the compounds according to the invention is determined compared with the activity of quercetin (3,5,7,3′,4′-pentahydroxyflavone) and other conventional antioxidants. The antioxidant activity here is taken to mean the ability to function as hydrogen or electron donor and thus to be able to scavenge free radicals. DPPH assay is used for the determination.\nA stock solution of 2,2-diphenyl-1-picrylhydrazyl (DPPH) in ethanol is prepared (0.025 g/l of DPPH-free radicals). Aliquots of this solution are mixed with various concentrations of the compound to be tested. The absorbance is in each case measured at 515 nm, 25° C. and 1 cm.\nThe lower this value, the higher the corresponding antioxidant activity.\nThe reaction time necessary to achieve this value is indicated in the value TEC50 (in minutes).\nThe anti-free-radical efficiency (AE) is obtained from this in accordance with the following relationship: [formula]\nA higher AE value here indicates a higher activity against free radicals.",
  "data": [
    {"compound": "O=C1c2c(O)cc(O)cc2OC(c2ccc(O)c(O)c2)C1O", "note": "(stereo not shown) [3,5,7,3′,4′-Pentahydroxyflavanone]", "values": [
      {"measurement": "AE (×10^−3)", "value": "5.53 ×10^−3"},
      {"measurement": "TEC50", "value": 1200, "unit": "min"}
    ]},
    {"compound": "O=c1c(O)c(-c2ccc(O)c(O)c2)oc2cc(O)cc(O)c12", "note": "[3,5,7,3′,4′-pentahydroxyflavone]", "values": [
      {"measurement": "AE (×10^−3)", "value": "18.72 ×10^−3"},
      {"measurement": "TEC50", "value": 600, "unit": "min"}
    ]},
    {"compound": "O=c1cc(-c2ccccc2)oc2cc(O)c(O)c(O)c12", "note": "[5,6,7-Trihydroxyflavone/bacalein, 5,6,7-trihydroxyflavone]", "values": [
      {"measurement": "AE (×10^−3)", "value": "27.78 ×10^−3"},
      {"measurement": "TEC50", "value": 360, "unit": "min"}
    ]},
    {"compound": "O=c1cc(-c2ccc(O)c(O)c2)oc2ccc(O)cc12", "note": "[6,3′,4′-Trihydroxyflavone, 6,3′,4′-trihydroxyflavone]", "values": [
      {"measurement": "AE (×10^−3)", "value": "46.30 ×10^−3"},
      {"measurement": "TEC50", "value": 180, "unit": "min"}
    ]},
    {"compound": "O=c1cc(-c2ccc(O)c(O)c2)oc2c(O)c(O)ccc12", "note": "[7,8,3′,4′-Tetrahydroxyflavone, 7,8,3′,4′-tetrahydroxyflavone]", "values": [
      {"measurement": "AE (×10^−3)", "value": "18.52 ×10^−3"},
      {"measurement": "TEC50", "value": 600, "unit": "min"}
    ]},
    {"compound": "O=C1O[C@H]([C@@H](O)CO)C(O)=C1O", "note": "[Ascorbic acid]", "values": [
      {"measurement": "AE (×10^−3)", "value": "61.72 ×10^−3"},
      {"measurement": "TEC50", "value": "<60", "unit": "min"}
    ]},
    {"compound": "COc1cc(/C=C/C(=O)O)ccc1O", "note": "[Ferulic acid]", "values": [
      {"measurement": "AE (×10^−3)", "value": "4.9 ×10^−3"},
      {"measurement": "TEC50", "value": 600, "unit": "min"}
    ]},
    {"compound": "Tocopherol", "values": [
      {"measurement": "AE (×10^−3)", "value": "64.1 ×10^−3"},
      {"measurement": "TEC50", "value": "<60", "unit": "min"}
    ]}
  ]
}
